Laboratory results published in the supplement of paper PMC11451515.

System: SEM cells
Assay: cell viability relative to DMSO control; higher = less cytotoxic
Details: 48 h
In short: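 Viability, reported as a per-plate percentage of DMSO wells with cell-free wells as background, came from CellTiter-Glo One luminescence. Reading took place after 48 h at 37°C. Before that, NOMO1 or SEM (500 cells/well) or P12-Ichikawa (1000 cells/well) leukemia cells, adapted for at least four passages in each medium, were seeded in 1536-well plates (5 μl) and pin-dosed with library compounds in DMSO, 47 μM to 0.79 nM over 11 threefold points.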

[1] = HPLM + 10% dialyzed FBS, 0.000781 µM
[2] = HPLM + 10% dialyzed FBS, 0.00234 µM
[3] = HPLM + 10% dialyzed FBS, 0.00702 µM
[4] = HPLM + 10% dialyzed FBS, 0.0211 µM
[5] = HPLM + 10% dialyzed FBS, 0.0632 µM
[6] = HPLM + 10% dialyzed FBS, 0.19 µM
[7] = HPLM + 10% dialyzed FBS, 0.569 µM
[8] = HPLM + 10% dialyzed FBS, 1.71 µM
[9] = HPLM + 10% dialyzed FBS, 5.12 µM
[10] = HPLM + 10% dialyzed FBS, 15.4 µM
[11] = HPLM + 10% dialyzed FBS, 46.1 µM
[12] = RPMI 5 mM glucose + 10% FBS, 0.000781 µM
[13] = RPMI 5 mM glucose + 10% FBS, 0.00234 µM
[14] = RPMI 5 mM glucose + 10% FBS, 0.00702 µM
[15] = RPMI 5 mM glucose + 10% FBS, 0.0211 µM
[16] = RPMI 5 mM glucose + 10% FBS, 0.0632 µM
[17] = RPMI 5 mM glucose + 10% FBS, 0.19 µM
[18] = RPMI 5 mM glucose + 10% FBS, 0.569 µM
[19] = RPMI 5 mM glucose + 10% FBS, 1.71 µM
[20] = RPMI 5 mM glucose + 10% FBS, 5.12 µM
[21] = RPMI 5 mM glucose + 10% FBS, 15.4 µM
[22] = RPMI 5 mM glucose + 10% FBS, 46.1 µM
[23] = RPMI 5 mM glucose + 10% dialyzed FBS, 0.000781 µM
[24] = RPMI 5 mM glucose + 10% dialyzed FBS, 0.00234 µM
[25] = RPMI 5 mM glucose + 10% dialyzed FBS, 0.00702 µM
[26] = RPMI 5 mM glucose + 10% dialyzed FBS, 0.0211 µM
[27] = RPMI 5 mM glucose + 10% dialyzed FBS, 0.0632 µM
[28] = RPMI 5 mM glucose + 10% dialyzed FBS, 0.19 µM
[29] = RPMI 5 mM glucose + 10% dialyzed FBS, 0.569 µM
[30] = RPMI 5 mM glucose + 10% dialyzed FBS, 1.71 µM
[31] = RPMI 5 mM glucose + 10% dialyzed FBS, 5.12 µM
[32] = RPMI 5 mM glucose + 10% dialyzed FBS, 15.4 µM
[33] = RPMI 5 mM glucose + 10% dialyzed FBS, 46.1 µM

Structure (SMILES)	cell viability [1] [%]	cell viability [2] [%]	cell viability [3] [%]	cell viability [4] [%]	cell viability [5] [%]	cell viability [6] [%]	cell viability [7] [%]	cell viability [8] [%]	cell viability [9] [%]	cell viability [10] [%]	cell viability [11] [%]	cell viability [12] [%]	cell viability [13] [%]	cell viability [14] [%]	cell viability [15] [%]	cell viability [16] [%]	cell viability [17] [%]	cell viability [18] [%]	cell viability [19] [%]	cell viability [20] [%]	cell viability [21] [%]	cell viability [22] [%]	cell viability [23] [%]	cell viability [24] [%]	cell viability [25] [%]	cell viability [26] [%]	cell viability [27] [%]	cell viability [28] [%]	cell viability [29] [%]	cell viability [30] [%]	cell viability [31] [%]	cell viability [32] [%]	cell viability [33] [%]
CSCC[C@@H](NC(=O)[C@@H](Cc1ccccc1)NC(=O)CNC(=O)CNC(=O)[C@@H](N)Cc1ccc(O)cc1)C(=O)O	73.5	44.7	93	22	106	103	94.9	102	98.9	91.6	99.6	72.6	25.7	80.9	15.5	103	104	90.5	107	96.6	99.9	120	81.9	38.3	102	20.9	95.6	103	92.3	99.7	106	103	99.8
C[C@]12CC[C@@H]3c4ccc(O)cc4C[C@@H](CCCCCCCCC[S+]([O-])CCCC(F)(F)C(F)(F)F)[C@H]3[C@@H]1CC[C@@H]2O (some centres undefined)	123	112	114	118	113	112	125	117	119	126	109	89.1	84	82.8	93.2	85	80.4	82.4	99.2	80.8	83.7	86.3	120	124	105	111	110	112	125	114	103	102	81.6
Cc1cn(-c2cc(NC(=O)c3ccc(C)c(Nc4nccc(-c5cccnc5)n4)c3)cc(C(F)(F)F)c2)cn1	83.5	92.7	97.1	107	107	109	95.2	52.4	40.9	37.3	35.4	106	120	108	124	111	125	110	31.4	31.6	21.4	17.5	111	106	104	110	111	98.9	102	26.9	33.6	21.5	17.2
